The values that follow come from patent US10280150B2 (FORMA TM2, Inc., priority 2014, dated 2019).

The target in test [1] is IDH1-R132H recombinant protein (Homo sapiens (Human), UniProt O75874, R132H). Briefly: IDH1-R132H enzymatic assay (inhibition of NADPH consumption, diaphorase/resazurin readout). The test is classed as biochemical. The conditions noted are these: read-out: Enzyme IDH1 R132H IC50 (Range). In short, it runs like this:
(§1)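 Compound was preincubated 15 min at 25 °C with 30 nM IDH1-R132H or 10 nM IDH1-R132C in Tris pH 7.5 buffer with MgCl2, BSA and Triton X-100. Reaction with 2 mM α-ketoglutarate and 20 μM NADPH (solution concentrations) ran 45 min at 25 °C. Remaining NADPH was detected via diaphorase/resazurin fluorescence (ex 535/em 590 nm), and IC50 came from four-parameter fits.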

For test [2], the target named is IDH1-R132C recombinant protein (Homo sapiens (Human), UniProt O75874, R132C). Description: IDH1-R132C enzymatic assay (inhibition of NADPH consumption, diaphorase/resazurin readout). The test is classed as biochemical. The conditions noted are these: read-out: Enzyme IDH1 R132C IC50 (Range). In short, it runs like this: as §1
IDH1-R132C recombinant protein, sequence (O75874 whole entry R132C): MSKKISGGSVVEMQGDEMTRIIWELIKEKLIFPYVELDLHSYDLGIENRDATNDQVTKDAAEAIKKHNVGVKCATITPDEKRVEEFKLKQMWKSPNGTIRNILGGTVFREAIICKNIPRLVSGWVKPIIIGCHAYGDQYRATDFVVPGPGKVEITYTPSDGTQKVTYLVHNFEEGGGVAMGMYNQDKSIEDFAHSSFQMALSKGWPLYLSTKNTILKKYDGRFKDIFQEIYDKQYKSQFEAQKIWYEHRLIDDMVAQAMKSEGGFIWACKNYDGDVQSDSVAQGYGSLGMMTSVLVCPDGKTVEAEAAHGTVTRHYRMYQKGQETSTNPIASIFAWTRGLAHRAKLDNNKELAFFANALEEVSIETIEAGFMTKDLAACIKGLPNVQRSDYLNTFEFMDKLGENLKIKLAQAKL
The subject of test [3] is HCT116 isogenic IDH1-R132H mutant cells. Briefly: Cellular 2-HG assay using HCT116 mutant IDH1 cells (R132H), RapidFire mass spectrometry. The test is classed as cell-based. Particulars: Homo sapiens, read-out: HCT116 IDH1 R132H IC50 (Range).
In test [4] the test system is HCT116 isogenic IDH1-R132C mutant cells. Description: Cellular 2-HG assay using HCT116 mutant IDH1 cells (R132C), RapidFire mass spectrometry. The test is classed as cell-based. Particulars: Homo sapiens, read-out: HCT116 IDH1 R132C IC50 (Range).
The mark [5] stands for this setting: HCT-116, cellular 2-HG level, HCT116 IDH1-R132H cells, 24 hours.
Setting [6] is: HCT-116, cellular 2-HG level, HCT116 IDH1-R132C cells, 24 hours.

Read-outs that look alike come from different tables or passages of the source.

IDH1-R132H recombinant protein, sequence (O75874 whole entry R132H): as the sequence (O75874 whole entry R132C) above, with C132H counted along it

Consider `COc1nc(N[C@@H](C)c2cc3cc(Cl)c(Br)cc3[nH]c2=O)ncc1C#N` [Compound I-162, (S)-2-((1-(7-bromo-6-chloro-2-oxo-1,2-dihydroquinolin-3-yl)ethyl)amino)-4-methoxypyrimidine-5-carbonitrile], for which the IC50 is below 100 nM in test [1], 100 to 1000 nM in test [2], below 100 nM in test [3] (setting [5]) and 100 to 1000 nM in test [4] (setting [6]).
For `CC(=O)Nc1ccnc(N[C@@H](C)c2cc3cc(Cl)cc(F)c3[nH]c2=O)n1` [Compound I-160, (S)—N-(2-((1-(6-Chloro-8-fluoro-2-oxo-1,2-dihydroquinolin-3-yl)ethyl)amino)pyrimidin-4-yl)acetamide], the IC50 in test [1], in test [2], in test [3] (setting [5]) and in test [4] (setting [6]) was below 100 nM in each case.
As for `C[C@H](Nc1nccc(N2CCNC2=O)n1)c1cc2cc(Cl)ccc2[nH]c1=O` [Compound I-123, (S)-6-Chloro-3-(1-((4-(2-oxoimidazolidin-1-yl)pyrimidin-2-yl)amino)ethyl)quinolin-2(1H)-one], the IC50 in test [1] is below 100 nM; in test [2], 100 to 1000 nM; in test [3] (setting [5]), 100 to 1000 nM; in test [4] (setting [6]) it was 100 to 1000 nM.
With `C[C@H](Nc1nccc(-n2nnnc2C2CC2)n1)c1cc2cc(Cl)cnc2[nH]c1=O` [Compound I-184], the 50% inhibitory concentration (IC50) in test [1], in test [2], in test [3] (setting [5]) and in test [4] (setting [6]) was 100 to 1000 nM throughout.
For the molecule `COc1nc(N[C@H](C)c2nc3cc(Cl)ccc3[nH]c2=O)ncc1C#N` [Compound I-157], the IC50 in test [1] is 100 to 1000 nM; in test [2], 1000 to 10000 nM; in test [3] (HCT-116, 24 h), below 100 nM; in test [4] (HCT-116, 24 h), 100 to 1000 nM.
As for `CC(=O)Nc1ccnc(NC(C)c2cc3cc(Cl)c(OCc4ccccn4)cc3[nH]c2=O)n1` (centres unmarked) [Compound I-149], the IC50 in test [1], in test [2], in test [3] (setting [5]) and in test [4] (setting [6]) was below 100 nM each time.
With `C[C@H](Nc1nccc(-c2cnc3ccccn23)n1)c1cc2cc(Cl)ccc2[nH]c1=O` [Compound I-63, (S)-6-chloro-3-(1-((4-(imidazo[1,2-a]pyridin-3-yl)pyrimidin-2-yl)amino)ethyl)quinolin-2(1H)-one], the IC50 was below 100 nM in test [1], below 100 nM in test [2], 100 to 1000 nM in test [3] (setting [5]) and 1000 to 10000 nM in test [4] (setting [6]).
As for `C[C@H](Nc1nccc(NC(=O)C2CC2)n1)c1cc2cc(Cl)c(F)cc2[nH]c1=O` [Compound I-180, (S)—N-(2-((1-(6-chloro-7-fluoro-2-oxo-1,2-dihydroquinolin-3-yl)ethyl)amino)pyrimidin-4-yl)cyclopropanecarboxamide], the IC50 in test [1], in test [2], in test [3] (setting [5]) and in test [4] (setting [6]) was 100 to 1000 nM in each case.
On to `C[C@H](Nc1nccc(-c2cncn2CC2CC2)n1)c1cc2cc(Cl)ccc2[nH]c1=O` [Compound I-61], for which the IC50 in test [1] is below 100 nM; in test [2] it was below 100 nM; in test [3] (setting [5]), 100 to 1000 nM; in test [4] (setting [6]), 100 to 1000 nM.
On to `COc1cc2[nH]c(=O)c(C(C)Nc3ncc(C#N)c(OC)n3)cc2cc1Cl` (centres unmarked) [Compound I-145], for which the IC50 in test [1] was below 100 nM; in test [2], below 100 nM; in test [3] (HCT-116, 24 h), below 100 nM; in test [4] (HCT-116, 24 h) it was 100 to 1000 nM.
As for `COC(=O)Nc1ccnc(N[C@@H](C)c2cc3cc(Cl)c(OCc4ccccn4)cc3[nH]c2=O)n1` [Compound I-154, (S)-methyl (2-((1-(6-Chloro-2-oxo-7-(pyridin-2-ylmethoxy)-1,2-dihydroquinolin-3-yl)ethyl)amino)pyrimidin-4-yl)carbamate], the IC50 in test [1], in test [2], in test [3] (setting [5]) and in test [4] (setting [6]) was below 100 nM throughout.
`COc1cc2[nH]c(=O)c(C(C)Nc3nccc(N4CCOC4=O)n3)cc2cc1Cl` (centres unmarked) [Compound I-146]: the IC50 is below 100 nM in test [1], 100 to 1000 nM in test [2], below 100 nM in test [3] (setting [5]) and 100 to 1000 nM in test [4] (setting [6]).
On to `Cc1ncccc1-c1ccnc(N[C@@H](C)c2cc3cc(Cl)ccc3[nH]c2=O)n1` [Compound I-90], for which the 50% inhibitory concentration (IC50) was in the range of 100 to 1000 nM in test [1], 1000 to 10000 nM in test [2], 1000 to 10000 nM in test [3] (setting [5]) and 1000 to 10000 nM in test [4] (setting [6]).
`CCC(=O)Nc1ccnc(N[C@@H](C)c2cc3cc(Cl)ccc3[nH]c2=O)n1` [Compound I-33]: the IC50 in test [1] is below 100 nM; in test [2], below 100 nM; in test [3] (setting [5]), below 100 nM; in test [4] (setting [6]) it was 100 to 1000 nM.
On to `C[C@H](Nc1nccc(-c2cnnn2C)n1)c1cc2cc(Cl)ccc2[nH]c1=O` [Compound I-66, (S)-6-chloro-3-(1-((4-(1-methyl-1H-1,2,3-triazol-5-yl)pyrimidin-2-yl)amino)ethyl)quinolin-2(1H)-one], for which the IC50 in test [1] lay in the range of 100 to 1000 nM; in test [2], 1000 to 10000 nM; in test [3] (setting [5]) it was 100 to 1000 nM; in test [4] (setting [6]) it was 100 to 1000 nM.
Consider `C[C@H](Nc1nccc(NC(=O)C2CC2)n1)c1cc2cc(Cl)ccc2[nH]c1=O` [Compound I-29], for which the IC50 in test [1] is below 100 nM; in test [2], below 100 nM; in test [3] (setting [5]) it was 100 to 1000 nM; in test [4] (setting [6]), 100 to 1000 nM.
As for `CC(=O)Nc1ccnc(N[C@@H](C)c2cc3cc(Cl)c(F)cc3[nH]c2=O)n1` [Compound I-179, (S)—N-(2-((1-(6-chloro-7-fluoro-2-oxo-1,2-dihydroquinolin-3-yl)ethyl)amino)pyrimidin-4-yl)acetamide], the IC50 in test [1], in test [2], in test [3] (setting [5]) and in test [4] (setting [6]) was below 100 nM in each case.
